Earlier results on one compound are cited in patent US12590059B2, “Process for the production of levetiracetam” (Suzhou BrightHope Pharmatech Co., Ltd, priority 2023, dated 2026).

The conditions of the series: stated as known.

As for `CC[C@@H](C(N)=O)N1CCCC1=O` [Levetiracetam], the solubility in water entry is “about 100 g/100 mL water”.
